Where only a bound is given, the exact number is not on record here.

Usually Ki stands for a measure of affinity in units of concentration, obtained from inhibition or displacement. A word on the IC50: it is the midpoint of a concentration-inhibition curve. For orientation: IC20 means the concentration at which the effect reaches the 20% level. A low value points to an effect from little substance. By EC50 is commonly meant the concentration that produces a half-maximal response.

The target of one data set is PIM1 (Homo sapiens (Human), UniProt P11309). The data set is described as follows: biochemical. The format is biochemical. Conditions: 20 pM PIM1, 1 μM FAM-peptide, 10 μM ATP, 90 minutes at room temperature; read-out: PIM1 LC3K (KI).
Sequence of PIM1 (P11309 whole entry): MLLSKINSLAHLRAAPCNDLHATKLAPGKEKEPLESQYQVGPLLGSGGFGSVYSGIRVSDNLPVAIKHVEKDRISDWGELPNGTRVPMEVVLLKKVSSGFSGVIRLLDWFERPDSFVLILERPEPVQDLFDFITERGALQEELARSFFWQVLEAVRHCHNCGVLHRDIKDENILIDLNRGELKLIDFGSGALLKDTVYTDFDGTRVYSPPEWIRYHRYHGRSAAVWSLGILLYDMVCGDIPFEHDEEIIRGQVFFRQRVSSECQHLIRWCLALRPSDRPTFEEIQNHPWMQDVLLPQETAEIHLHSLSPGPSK
Another data set concerns the target hERG potassium channel (Homo sapiens (Human), UniProt Q12809). The data set can be described thus: hERG assay (IC50), automated PatchXpress in hERG-expressing HEK-293 cells. It is filed as cell-based. Conditions: 0.01-100 μM, 5 minutes after adding test article; for IC20 at 5 min: human, HEK-293 cells that express hERG.
Another data set concerns BaF3 parental cells. The data set can be described thus: In vitro cell proliferation, BaF3 parental line + IL3.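 Further: BaF3 parental cells are murine IL-3 dependent pro-B cells grown with 2 ng/mL mIL-3, 384-well format, viability read by luminescence.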 It is filed as cell-based, murine. The settings on record: Mus musculus, BaF3, BaF3 parental, mIL-3, incubated overnight, CELL TITER GLO; read-out: Prolif BaF3 IL3 (IC50).
Another data set relates to BaF3 PIM1 cells. The data set is described as follows: In vitro cell proliferation, BaF3 transfected with PIM1.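 Further: murine IL-3-dependent pro-B BaF3 cells transfected with PIM1, compound exposure overnight at 37 °C under 5% CO2, viability read as luminescence.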 The format is cell-based, murine. Conditions: Mus musculus, BaF3, read-out: Prolif BaF3 PIM1 (IC50), BaF3 PIM1 cells, incubated overnight, CELL TITER GLO. On the technique in general: In ATP-based viability assays light output follows the ATP content of the culture.

Data set [1] has as its system MM1.S (multiple myeloma) cells. The data set is described as follows: In vitro cell proliferation, MM1.S multiple myeloma cells.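 Further: cells cultured in RPMI with 10% FBS and 2 mM L-Glutamine, seeded in 384-well plates, exposed to compound, cell viability measured by luminescence after CellTiter-Glo addition.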 The format is cell-based. Conditions: Homo sapiens, MM1.S, 72 h, MM1.S cells, 72 hours, CELL TITER GLO; read-out: Prolif MM1S ATP (EC50).
Procedure: (§1) BaF3 parental line was obtained from the DSMZ repository. […] Media for BaF3 parental line contained RPMI, 10% FBS, 2 mM L-Glutamine, 2 ng/mL mIL-3. Media for BaF3 PIM1 & 2 lines contained RPMI, 10% FBS, 2 mM L-Glutamine, 250 μg/mL. Media for MM1.S (multiple myeloma cells) line contained RPMI, 10% FBS, 2 mM L-Glutamine.
(§2) BaF3, a murine interleukin-3 dependent pro-B cell line, parental cells, BaF3 PIM1 cells, BaF3 PIM2 cells, and MM1.S (multiple myeloma) cells were seeded at 2 k/well, 5 k/well, 5 k/well, and 10 k/well respectively, in a 384-well plate, at 45 μL/well. Test compound was added at 5 μL/well. BaF3 cells (parental and transfected) were incubated overnight, while MM1.S cells were incubated for 72 hours at 37° C., 5% CO2. CELL TITER GLO® Reagent (Promega) was added at 50 μL/well, the plates were incubated for 30 minutes, and their luminescence read on an HT Analyst. IC50/EC50 values for the test compound were calculated.

Sequence of hERG potassium channel (Q12809 whole entry): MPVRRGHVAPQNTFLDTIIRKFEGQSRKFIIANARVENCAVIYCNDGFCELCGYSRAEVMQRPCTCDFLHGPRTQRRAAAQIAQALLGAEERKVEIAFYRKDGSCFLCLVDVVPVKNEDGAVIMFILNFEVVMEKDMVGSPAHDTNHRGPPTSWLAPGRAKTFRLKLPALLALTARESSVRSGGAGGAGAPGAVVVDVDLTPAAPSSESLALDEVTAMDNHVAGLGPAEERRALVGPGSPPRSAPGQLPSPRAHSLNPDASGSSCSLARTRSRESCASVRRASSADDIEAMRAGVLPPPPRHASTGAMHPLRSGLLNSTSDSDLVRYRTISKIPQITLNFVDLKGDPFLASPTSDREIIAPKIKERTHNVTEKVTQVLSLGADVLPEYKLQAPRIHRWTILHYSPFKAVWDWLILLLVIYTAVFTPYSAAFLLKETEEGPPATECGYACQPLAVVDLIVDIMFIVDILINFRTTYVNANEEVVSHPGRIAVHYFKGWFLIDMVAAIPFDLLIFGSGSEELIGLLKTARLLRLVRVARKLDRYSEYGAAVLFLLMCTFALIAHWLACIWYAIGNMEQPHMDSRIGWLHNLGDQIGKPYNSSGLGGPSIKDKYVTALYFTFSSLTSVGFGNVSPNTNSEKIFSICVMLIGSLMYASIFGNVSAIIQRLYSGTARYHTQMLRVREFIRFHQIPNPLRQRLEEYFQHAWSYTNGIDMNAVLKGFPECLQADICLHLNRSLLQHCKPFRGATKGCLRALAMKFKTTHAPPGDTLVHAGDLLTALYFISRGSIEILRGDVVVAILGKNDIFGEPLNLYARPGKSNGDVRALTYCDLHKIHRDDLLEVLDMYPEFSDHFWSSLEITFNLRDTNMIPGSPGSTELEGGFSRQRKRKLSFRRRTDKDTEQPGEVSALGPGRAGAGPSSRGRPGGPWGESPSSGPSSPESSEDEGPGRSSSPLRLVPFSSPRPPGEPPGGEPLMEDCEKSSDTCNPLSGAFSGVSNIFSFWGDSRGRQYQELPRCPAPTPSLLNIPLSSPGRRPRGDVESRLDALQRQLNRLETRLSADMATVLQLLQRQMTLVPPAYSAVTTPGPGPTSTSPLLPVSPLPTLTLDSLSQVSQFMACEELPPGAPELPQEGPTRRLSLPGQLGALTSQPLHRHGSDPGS
Procedure for BaF3 PIM1 cells: as §1, §2
Procedure for hERG potassium channel: The in vitro potential for hERG potassium channel current inhibition was assessed according to the study site standard procedures (ChanTest, Cleveland, Ohio). In brief, hERG inhibition (% max) was determined in hERG-expressing HEK-293 cells (n=2/concentration) using the automated PatchXpress 7000A system (Molecular Devices, Sunnyvale, Calif.) for 5 minutes after adding the test article.

With `Cn1ncc(NC(=O)c2nc(-c3c(F)cccc3F)sc2N)c1[C@@H]1CC[C@@H](N)[C@H](F)CO1` [Example 177, 5-Amino-N-[5-[(2S,5R,6S)-5-amino-6-fluoro-oxepan-2-yl]-1-methyl-pyrazol-4-yl]-2-(2,6-difluorophenyl)thiazole-4-carboxamide], the Ki at PIM1 worked out at 0.00342 nM. In addition, on hERG potassium channel, it took 16 µM to reach half-maximal inhibition (IC50) and the 20% effect level (IC20 at 5 min) was put at 3900 nM.

On to `Cn1ncc(NC(=O)c2nc(-c3c(F)cccc3F)sc2N)c1N1CC[C@@H](N)[C@H](F)CC1` [No. 139 of US 2013/0079321, 5-amino-N-(5-((4R,5R)-4-amino-5-fluoroazepan-1-yl)-1-methyl-1H-pyrazol-4-yl)-2-(2,6-difluorophenyl)thiazole-4-carboxamide, reference compound], for which the IC20 at 5 min on hERG potassium channel was 700 nM.

For `C[C@@H]1C[C@@H](N)CC[C@H](c2c(NC(=O)c3nc(-c4c(F)cccc4F)sc3N)cnn2C)O1` [Example 121, 5-amino-N-(5-((2R,5S,7R)-5-amino-7-methyloxepan-2-yl)-1-methyl-1H-pyrazol-4-yl)-2-(2,6-difluorophenyl)thiazole-4-carboxamide], the Ki on PIM1 is 0.003 nM. The IC50 is 3.5 µM in the data set on BaF3 parental cells and 13.6 nM with BaF3 PIM1 cells. Also, the half-maximal effective concentration (EC50) in data set [1] came out at 11.9 nM.

As for `Cc1cccc(-c2nc(C(=O)Nc3cnn(C)c3[C@@H]3CC[C@@H](N)[C@H](F)CO3)cs2)c1F` [Example 361, N-[5-[(2S,5R,6S)-5-amino-6-fluoro-oxepan-2-yl]-1-methyl-pyrazol-4-yl]-2-(2-fluoro-3-methyl-phenyl)thiazole-4-carboxamide], the Ki on PIM1 is 0.068 nM. Further, the figures for the IC50 in the data set with BaF3 parental cells and with BaF3 PIM1 cells were 2.8 µM and 250 nM, respectively. Also, in data set [1], the EC50 came out at 452 nM.

As for `CN(C)C(=O)c1cc(F)c(-c2nc(C(=O)Nc3cnn(C)c3[C@@H]3CC[C@@H](N)[C@H](F)CO3)cs2)c(F)c1` [Example 354, N-(5-((2S,5R,6S)-5-amino-6-fluorooxepan-2-yl)-1-methyl-1H-pyrazol-4-yl)-2-(4-(dimethylcarbamoyl)-2,6-difluorophenyl)thiazole-4-carboxamide], the Ki on PIM1 was determined as 0.083 nM. For the same compound, the IC50 with BaF3 parental cells stood at 7.3 µM; in the data set on BaF3 PIM1 cells, 3400 nM. The EC50 in data set [1] came out at 5100 nM.

In the case of `C[C@H](O)c1ccc(-c2nc(C(=O)Nc3cnn(C)c3[C@@H]3CC[C@@H](N)[C@H](F)CO3)cs2)c(F)c1F` (single isomer, unassigned) [Example 365], the Ki on PIM1 is 0.069 nM. In addition, the IC50 in the data set on BaF3 parental cells was 15.9 µM; in the data set with BaF3 PIM1 cells, 408 nM. Besides, the EC50 in data set [1] was determined as 348 nM.

With `Cn1ncc(NC(=O)c2csc(-c3c(F)ccc(C(F)F)c3F)n2)c1[C@@H]1CC[C@@H](N)[C@H](F)CO1` [Example 377, N-[5-[(2S,5R,6S)-5-amino-6-fluoro-oxepan-2-yl]-1-methyl-pyrazol-4-yl]-2-[3-(difluoromethyl)-2,6-difluoro-phenyl]thiazole-4-carboxamide], the Ki at PIM1 was found to be 0.031 nM. Further, the IC50 in the data set on BaF3 parental cells is 9.9 µM; in the data set with BaF3 PIM1 cells, 68.6 nM. In addition, the EC50 in data set [1] came out at 4200 nM.

Consider `C[C@H]1O[C@@H](c2c(NC(=O)c3csc(-c4c(F)cccc4F)n3)cnn2C)C[C@@H](N)[C@]1(C)O` (single isomer, unassigned) [Example 341], for which, at PIM1, the Ki was found to be 0.003 nM. For the same compound, the IC50 was > 25 µM in the data set on BaF3 parental cells and 96.8 nM in the data set on BaF3 PIM1 cells. Moreover, in data set [1], the EC50 came out at 6900 nM.

For `CO[C@H]1CO[C@H](c2c(NC(=O)c3nc(-c4c(F)cccc4F)sc3N)cnn2C)CC[C@H]1N` [Example 154, 5-Amino-N-[5-[(2S,5R,6R)-5-amino-6-methoxy-oxepan-2-yl]-1-methyl-pyrazol-4-yl]-2-(2,6-difluorophenyl)thiazole-4-carboxamide], the Ki on PIM1 was 0.008 nM. Also, at hERG potassium channel, the midpoint of inhibition, the IC50, lay at 9.1 µM and the 20% effect level (IC20 at 5 min) was put at 1600 nM.

As to `CO[C@@H]1CO[C@H](c2c(NC(=O)c3csc(-c4ncccc4C)n3)cnn2C)CC[C@H]1N` [Example 348, N-(5-((2S,5R,6S)-5-amino-6-methoxyoxepan-2-yl)-1-methyl-1H-pyrazol-4-yl)-2-(3-methylpyridin-2-yl)thiazole-4-carboxamide], the inhibition constant (Ki) at PIM1 is 0.014 nM. For the same compound, the IC50 is 10.5 µM with BaF3 parental cells and 359 nM in the data set on BaF3 PIM1 cells. Moreover, in data set [1], the EC50 stood at 1000 nM.

As for `COc1cccc(-c2nc(C(=O)Nc3cnn(C)c3[C@@H]3CC[C@@H](N)[C@H](F)CO3)cs2)c1F` [Example 362, N-(5-((2S,5R,6S)-5-amino-6-fluorooxepan-2-yl)-1-methyl-1H-pyrazol-4-yl)-2-(2-fluoro-3-methoxyphenyl)thiazole-4-carboxamide], the Ki on PIM1 amounted to 0.036 nM. Further, the IC50 with BaF3 parental cells was found to be 3.1 µM; in the data set on BaF3 PIM1 cells, 50.7 nM. Also, in data set [1], the EC50 worked out at 336 nM.

As for `Cc1sc(-c2c(F)cccc2F)nc1C(=O)Nc1cnn(C)c1[C@@H]1CC[C@@H](N)[C@H](F)CO1` [Example 370, N-[5-[(2S,5R,6S)-5-amino-6-fluoro-oxepan-2-yl]-1-methyl-pyrazol-4-yl]-2-(2,6-difluorophenyl)-5-methyl-thiazole-4-carboxamide], the Ki at PIM1 amounted to 0.382 nM. For the same compound, the results for the IC50 in the data set on BaF3 parental cells and with BaF3 PIM1 cells were 6.4 µM and 675 nM, respectively. Also, the EC50 in data set [1] amounted to 1800 nM.

`C[C@@H](O)c1ccc(-c2nc(C(=O)Nc3cnn(C)c3[C@@H]3CC[C@@H](N)[C@H](F)CO3)cs2)c(F)c1F` (single isomer, unassigned) [Example 366]: the Ki at PIM1 was determined as 0.14 nM. Further, the IC50 turned out to be 10.3 µM with BaF3 parental cells and 302 nM in the data set with BaF3 PIM1 cells. In data set [1], the EC50 amounted to 1700 nM.

Regarding `Cn1ncc(NC(=O)c2csc(-c3ccccc3F)n2)c1[C@@H]1CC[C@@H](N)[C@H](F)CO1` [Example 322, N-(5-((2S,5R,6S)-5-amino-6-fluorooxepan-2-yl)-1-methyl-1H-pyrazol-4-yl)-2-(2-fluorophenyl)thiazole-4-carboxamide], the Ki at PIM1 was 0.072 nM. Also, the IC50 in the data set with BaF3 parental cells came to 6.3 µM; with BaF3 PIM1 cells, 113 nM. Besides, in data set [1], the EC50 was determined as 1500 nM.

Take `Cn1ncc(NC(=O)c2nc(-c3c(F)cccc3Cl)sc2N)c1[C@@H]1CC[C@@H](N)[C@H](F)CO1` [Example 328, 5-amino-N-(5-((2S,5R,6S)-5-amino-6-fluorooxepan-2-yl)-1-methyl-1H-pyrazol-4-yl)-2-(2-chloro-6-fluorophenyl)thiazole-4-carboxamide]: the Ki at PIM1 turned out to be 0.036 nM. Besides, the IC50 in the data set on BaF3 parental cells came out at 12.5 µM; with BaF3 PIM1 cells, 21.4 nM. In data set [1], the EC50 stood at 1500 nM.

For the compound `Cn1ncc(NC(=O)c2csc(-c3cccnc3)n2)c1[C@@H]1CC[C@@H](N)[C@H](F)CO1` [Example 383, N-[5-[(2S,5R,6S)-5-amino-6-fluoro-oxepan-2-yl]-1-methyl-pyrazol-4-yl]-2-(3-pyridyl)thiazole-4-carboxamide], the Ki at PIM1 worked out at 0.991 nM. Also, the IC50 with BaF3 parental cells was found to be 20.8 µM; in the data set with BaF3 PIM1 cells it was 823 nM. In addition, the EC50 in data set [1] came to 5700 nM.

Regarding `C[C@@H]1O[C@@H](c2c(NC(=O)c3csc(-c4c(F)cccc4F)n3)cnn2C)C[C@H](N)[C@@]1(C)O` (single isomer, unassigned) [Example 342], the Ki at PIM1 turned out to be 2.3 nM. Moreover, the IC50 in the data set with BaF3 parental cells is 10 µM; in the data set on BaF3 PIM1 cells, 12700 nM. Moreover, the EC50 in data set [1] turned out to be 21600 nM.

Consider `Cn1ncc(NC(=O)c2csc(-c3c(F)cc([C@@H]4CCCO4)cc3F)n2)c1[C@@H]1CC[C@@H](N)[C@H](F)CO1` (single isomer, unassigned) [Example 371], for which the Ki at PIM1 was 0.057 nM. Moreover, the IC50 was > 25 µM in the data set with BaF3 parental cells and 151 nM with BaF3 PIM1 cells. Also, the EC50 in data set [1] was determined as 4400 nM.

Take `Cn1ncc(NC(=O)c2ccc(F)c(-c3ccc(Cl)cc3F)n2)c1[C@@H]1CC[C@@H](N)[C@H](F)CO1` [Example 359, N-(5-((2S,5R,6S)-5-amino-6-fluorooxepan-2-yl)-1-methyl-1H-pyrazol-4-yl)-6-(4-chloro-2-fluorophenyl)-5-fluoropicolinamide]: at PIM1, the Ki came to 0.007 nM. For the same compound, the values for the IC50 in the data set on BaF3 parental cells and in the data set on BaF3 PIM1 cells were 11.6 µM and 262 nM, respectively. Further, the EC50 in data set [1] was 5800 nM.

Source of the values: patent US9328106B2, “Cyclic ether pyrazol-4-yl-heterocyclyl-carboxamide compounds and methods of use” (Genentech, Inc., priority 2012, dated 2016).
